Experimental data as given in patent US20090004474A1, “Lyocell fibers with anti-microbial activity” (Weyerhaeuser Co., priority 2007, published 2009).

How the values were obtained:
E coli = assay: Growth medium study, antimicrobial test of meltblown fibers against E. coli; assay type: cell-based; conditions: compared to a control at the same time; for reduction of E. coli colony forming units at twenty four hours compared to a control: 24 hours
Procedure: E. coli: Prep Culti-Loop in 1.0 ml sterile TSB for 10 min.
ATCC 8739 Streak to TSA slant and grow for 24 hours @ 35 C
For S. aureus and E. coli, make 1:100 dilution of stock culture solution, and add 1.0 ml of the diluted solution to 1.0 liter of MGM.
S. aureus: 94.4 ml stock PBS+849.6 DI water; adjust pH & sterilize. (or 994 ml pre-diluted PBS Stock solution). (2X+2)200=2000 ml for 4. • ADD: 1.0 ml MSM • 50 ml BME vitamins. • 5 ml 1% Peptone. • 1.0 ml diluted Bacterial Culture (pre-made) • b. E. coli: 94.9 ml stock PBS+854.1 ml DI water; adjust pH & sterilize. (or 949 ml pre-diluted PBS Stock solution). (2X+2)200=2000 ml for 4. • ADD: 1.0 ml MSM • 50 ml BME vitamins. • 1.0 ml diluted Bacterial Culture (pre-made) • c. C. albicans: 92.9 ml stock PBS+836.1 ml DI water; adjust pH & sterilize. (or 929 ml pre-diluted PBS Stock solution). (2X+2)200=2000 ml for 4. • ADD: 1.0 ml MSM • 50 ml BME vitamins. • 20 ml 10% Peptone. • 10 ml 10% (NH4)2SO4 • 1.0 ml of Undiluted Bacterial Culture (pre-made) 7. Product to test:
Prep enough sterile 250 Plastic Bottles to handle 2 repetitions of each organism plus pos. and neg. control. (45 flasks are needed to test 6 products.) • B. Label all Plastic Bottles with organism (Staph, E. coli, C alb.), plus Sequential Number (W-1,W-2 . . . , W-45). • c. Add 2.0 gm of each product to be tested to each Plastic Bottle (or a sterile blender if Sample is not soft), then add 200 ml of inoculated MGM. Incubate, with shaking (in wire milk case—attached to shaker waterbath—plus one or two plastic cases) for 4 and 24 hours at 37 C Run duplicate tests. […] Run two bottles for each organism containing 200 ml of inoculated MGM, without Weyerhaeuser Sample. These are Blanks. • f. Run positive controls, TSB in place of Sample (see below) for each organism type. […] Incubation and counting. • a. […]

C. Albicans = assay: Growth medium study, antimicrobial test of meltblown fibers against C. albicans; assay type: cell-based; conditions: compared to a control at the same time
Procedure: Growth Medium Study Procedure
C. albicans: Prep Culti-Loop in 1.0 ml of sterile dilute PBS
ATCC 10231 Solution for 10 min. Streak onto SDA and grow for 24 hours @ 35 C
a. Prepare 9.0 ml dilute PBS tubes. Remove (wash) each culture organism from slants and add to PBS tubes.
Adjust so the turbidity of the culture matches a 0.5 McFarland solution (In BAM Media Pages). This is the stock culture solution. (S. aureus & E. coli, C. albicans.)
c. For C. albicans add 1.0 ml stock culture solution to 1.0 liter of MGM. (about […] final population)
6. Specialized MGM solutions for each Organism: • a. S. aureus: 94.4 ml stock PBS+849.6 DI water; adjust pH & sterilize. (or […] pre-diluted PBS Stock solution). (2X+2)200=2000 ml for 4. • ADD: 1.0 ml MSM • 50 ml BME vitamins. • 5 ml 1% Peptone. • 1.0 ml diluted Bacterial Culture (pre-made) • b. E. coli: 94.9 ml stock PBS+854.1 ml DI water; adjust pH & sterilize. (or 949 ml pre-diluted PBS Stock solution). (2X+2)200=2000 ml for 4. • ADD: 1.0 ml MSM • 50 ml BME vitamins. • 1.0 ml diluted Bacterial Culture (pre-made) • c. C. albicans: 92.9 ml stock PBS+836.1 ml DI water; adjust pH & sterilize. (or 929 ml pre-diluted PBS Stock solution). (2X+2)200=2000 ml for 4. • ADD: 1.0 ml MSM • 50 ml BME vitamins. • 20 ml 10% Peptone. • 10 ml 10% (NH4)2SO4 • 1.0 ml of Undiluted Bacterial Culture (pre-made) 7. Product to test:
a. […]

Row | Structure (SMILES) | reduction of E. coli colony forming units at twenty four hours compared to a control (E coli) | reduction of C. albicans count at four hours compared to a control (C. Albicans; 4 hours) | reduction of C. albicans count at twenty four hours compared to a control (C. Albicans; 24 hours) | reduction of E. coli colony forming units at four hours compared to a control (E coli; 4 hours)
1 | [O]=[Zn] [Zinc oxide] | at least ninety five | at least ninety five | at least ninety five | 
2 | O=C([O-])[O-].[Ca+2] [calcium carbonate, Calcium carbonate] | more than ninety five |  |  | more than ninety five
